# Data published in US7183267B2, “β-lactamase inhibitors and methods of use thereof” (priority 2003, dated 2007).
# Values joined by “and” are separate entries in the source; they are usually repeats but may differ in a detail not shown here. Equal values may be shown once. Read-outs that look alike come from different tables or passages of the source.
# Key:
# TEM-1 β-lactamase [1] = target: T1, TEM-1 β-lactamase (Escherichia coli, UniProt P62593); test: TEM-1 β-lactamase inhibition assay (nitrocefin hydrolysis, 486 nm); format: biochemical
# Outline: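 TEM-1 activity followed by nitrocefin hydrolysis at 486 nm, 25 °C, 50 mM sodium phosphate pH 7.0, 5% DMSO; inhibitor preincubated with enzyme 10 min before substrate. Ki obtained from rates at increasing inhibitor concentrations fitted to competitive-inhibition equations; penicillin G also used as substrate for KM and kcat.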
# β-lactamase wt = β-lactamase wt (Escherichia coli, UniProt P62593); test: Isothermal titration calorimetry, binding enthalpy, wild type
# Method: (§1) The binding of the compounds of the present invention to β-lactamase was also measured by isothermal titration calorimetry.
# (§2) These experiments, in combination with the inhibition assays, indicate that the compounds identified in this disclosure bind to the wild type as well as drug resistant beta lactamases with favorable binding enthalpies. This is a very important characteristic from the point of view of further optimization since it facilitates the achievement of extremely high affinities and low susceptibilities to drug resistant mutations and naturally occurring polymorphisms.
# (§3) Isothermal titration calorimetry was performed on a high-precision VP-ITC titration calorimeter (Microcal Inc., Northampton, Mass.). β-Lactamase solutions were titrated with inhibitors in 50 mM sodium phosphate, 2% DMSO, pH 7.0, with β-lactamase concentrations ranging from 15 to 25 μM and inhibitor concentrations ranging from 300 to 1000 μM. The heat evolved from each injection was obtained by integrating the calorimetric signal. Heat of binding was obtained as the difference between the heat of reaction and the heat of inhibitor dilution. Data were analyzed using Origin 7.0 (OriginLab Corporation, Northampton, Mass.).
# β-lactamase M69I = β-lactamase M69I (Escherichia coli, UniProt P62593, M67I); test: Isothermal titration calorimetry, binding enthalpy, M69I mutant
# Method: as §1, §2, §3
# β-lactamase E104K = β-lactamase E104K (Escherichia coli, UniProt P62593, E102K); test: Isothermal titration calorimetry, binding enthalpy, E104K mutant
# Method: as §1, §2, §3
# β-lactamase R244S = β-lactamase R244S (Escherichia coli, UniProt P62593, R241S); test: Isothermal titration calorimetry, binding enthalpy, R244S mutant
# Method: as §1, §2, §3
# β-lactamase mutant E104K = β-lactamase mutant E104K (Escherichia coli, UniProt P62593, E102K); format: biochemical; details: number higher than 1 reflects a loss of potency against mutant
# Method: (§4) The inhibition of TEM-1 β-lactamase was determined spectrophotometrically. B-lactamase activity was followed by measuring the hydrolysis of nitrocefin, [3-(2,4-dinitrostyryl)-(6R, 7R)-7-(2-thienylacetamido)-ceph-3-em-4-carboxylic acid, E-isomer], (Calbiochem, San Diego, Calif., USA) at 486 nm. Inhibition assays were performed at 25° C. in 50 mM sodium phosphate, 5% DMSO, pH 7.0. […] Inhibitor was added to the enzyme and incubated for ten minutes before the addition of substrate. Inhibition constants (Ki) for the inhibitors are obtained at the desired temperature and solvent conditions by measuring the rate of substrate hydrolysis at increasing amounts of inhibitors.
# (§5) Three of the most important mutations are M69I, R244S and E104K.
# β-lactamase mutant M69I = β-lactamase mutant M69I (Escherichia coli, UniProt P62593, M67I); format: biochemical; details: number higher than 1 reflects a loss of potency against mutant
# Method: as §4, §5
# β-lactamase mutant R244S = β-lactamase mutant R244S (Escherichia coli, UniProt P62593, R241S); format: biochemical; details: number higher than 1 reflects a loss of potency against mutant
# Method: as §4, §5
# TEM-1 β-lactamase [2] = target: T1, TEM-1 β-lactamase; test: Isothermal titration calorimetry, binding to TEM-1 β-lactamase (Example 17); details: ITC
# Outline: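 TEM-1 β-lactamase (15–25 μM) titrated with inhibitor (300–1000 μM) in 50 mM sodium phosphate, 2% DMSO, pH 7.0. Integrated injection heats were corrected for inhibitor dilution heat to give binding heat.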
# AmpC β-lactamase = target: T2, AmpC β-lactamase (Escherichia coli, UniProt P00811); format: biochemical; details: substrate hydrolysis by AmpC, 25° C., pH 7.0
# T2 construct: made in house; host or cells: E. coli BL21 (DE3)
# T2 sequence (P00811 20-377): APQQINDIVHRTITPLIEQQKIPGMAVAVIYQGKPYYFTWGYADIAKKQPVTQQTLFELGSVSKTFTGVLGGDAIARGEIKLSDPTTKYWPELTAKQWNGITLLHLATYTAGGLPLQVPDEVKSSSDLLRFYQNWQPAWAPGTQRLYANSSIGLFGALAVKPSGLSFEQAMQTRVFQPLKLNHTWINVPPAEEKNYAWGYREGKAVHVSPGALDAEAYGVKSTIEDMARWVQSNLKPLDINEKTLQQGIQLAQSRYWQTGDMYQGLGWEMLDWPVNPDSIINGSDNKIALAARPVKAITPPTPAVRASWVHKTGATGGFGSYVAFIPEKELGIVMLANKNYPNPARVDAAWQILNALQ
# Method: The competitive inhibition of β-lactamase was determined spectrophotometrically using a Varian (Walnut Creek, Calif.) Cary 100 UV-Visible spectrophotometer. β-lactamase activity was followed by measuring the hydrolysis of nitrocefin, [3-(2,4-dinitrostyryl)-(6R, 7R)-7-(2-thienylacetamido)-ceph-3-em-4-carboxylic acid, E-isomer], (Calbiochem, San Diego, Calif.) at 486 nm. Inhibition assays were performed at 25° C. in 50 mM sodium phosphate, 5% DMSO, pH 7.0. […] Penicillin G (Sigma, St. Louis, Mo.) was also used as a substrate to determine KM and kcat.
SMILES,"Ki (TEM-1 β-lactamase [1]; Ki from Lineweaver-Burke Analysis, values in parenthesis, Lineweaver-Burke analysis) [µM]","Ki (TEM-1 β-lactamase [1]; Ki, 25° C., 50 mM sodium phosphate, 5% DMSO, pH 7.0, enzyme 5 nM, nitrocefin 167 μM) [µM]","Ki (TEM-1 β-lactamase [1]; Ki, TEM-1 β-lactamase) [µM]",ΔH wt (β-lactamase wt) [kcal/mol],ΔH M69I (β-lactamase M69I) [kcal/mol],ΔH E104K (β-lactamase E104K) [kcal/mol],ΔH R244S (β-lactamase R244S) [kcal/mol],"Loss of potency: ratio of the inhibitory constant between mutant and wild type (Potencywt/Potencymutant), E104K (β-lactamase mutant E104K)","Loss of potency: ratio of the inhibitory constant between mutant and wild type (Potencywt/Potencymutant), M69I (β-lactamase mutant M69I)","Loss of potency: ratio of the inhibitory constant between mutant and wild type (Potencywt/Potencymutant), R244S (β-lactamase mutant R244S)",ΔG (TEM-1 β-lactamase [2]) [kcal/mol],ΔH (TEM-1 β-lactamase [2]) [kcal/mol],−TΔS (TEM-1 β-lactamase [2]) [kcal/mol],melting point [°C],Km (AmpC β-lactamase),kcat (AmpC β-lactamase),Km (AmpC β-lactamase; read-out: KM) [µM]
"O=C(Oc1ccccc1[N+](=O)[O-])c1cc(B(O)O)cc([N+](=O)[O-])c1 [Compound (1b), 3-(2-Nitrophenoxycarbonyl)-5-nitrophenylboronic acid]",1.18,12 ± 3,12,-3.8,-2,-3.9,-9.5,0.92,1.0,1.2,-6.42,-4.011,-2.409,128 to 130,,,
"O=C(Cc1cccs1)N[C@@H]1C(=O)N2C(C(=O)O)=C(/C=C/c3ccc([N+](=O)[O-])cc3[N+](=O)[O-])CS[C@H]12 [nitrocefin, 3-(2,4-dinitrostyryl)-(6R, 7R)-7-(2-thienylacetamido)-ceph-3-em-4-carboxylic acid, E-isomer]",,,,,,,,,,,,,,,250 µM and 253 µM,975 s⁻¹ and 976 ± 46 s⁻¹,
"CC1(C)S[C@@H]2[C@H](NC(=O)Cc3ccccc3)C(=O)N2[C@H]1C(=O)O [penicillin G, Penicillin G]",,,,,,,,,,,,,,,,198 ± 4 s⁻¹,28 ± 3
